Laboratory results taken from ChEMBL document CHEMBL3797055, “Glabridin-chalcone hybrid molecules: drug resistance reversal agent against clinical isolates of methicillin-resistant Staphylococcus aureus” (Medchemcomm, 2016).
≈ marks a conversion by molar mass, not a printed value.

How the values were obtained:
Staphylococcus aureus [1] = test: Bactericidal activity against clinical isolates of methicillin-resistant Staphylococcus aureus ST2071 assessed as reduction in viability at MIC after 24 hrs by time kill kinetic analysis relative to control; format: functional
Staphylococcus aureus [2] = test: Antibacterial activity against clinical isolates of methicillin-resistant Staphylococcus aureus P4650 by checkerboard assay in presence of norfloxacin; format: functional
Staphylococcus aureus [3] = test: Potentiation of norfloxacin-induced antibacterial activity against clinical isolates of methicillin-resistant Staphylococcus aureus ST2071 assessed as reduction in norfloxacin MIC by checkerboard assay relative to control; format: functional
Staphylococcus aureus [4] = test: Potentiation of norfloxacin-induced antibacterial activity against clinical isolates of methicillin-resistant Staphylococcus aureus P4650 assessed as reduction in norfloxacin MIC by checkerboard assay relative to control; format: functional
Staphylococcus aureus [5] = test: Antibacterial activity against clinical isolates of methicillin-resistant Staphylococcus aureus P4629 by broth microdilution assay; format: functional
Staphylococcus aureus [6] = test: Antibacterial activity against clinical isolates of methicillin-resistant Staphylococcus aureus P4629 by checkerboard assay in presence of norfloxacin; format: functional
Staphylococcus aureus [7] = test: Antibacterial activity against clinical isolates of methicillin-resistant Staphylococcus aureus P4423 by checkerboard assay in presence of norfloxacin; format: functional
Staphylococcus aureus [8] = test: Potentiation of norfloxacin-induced antibacterial activity against clinical isolates of methicillin-resistant Staphylococcus aureus ST10760 assessed as reduction in norfloxacin MIC by checkerboard assay relative to control; format: functional
Staphylococcus aureus [9] = test: Potentiation of norfloxacin-induced antibacterial activity against clinical isolates of methicillin-resistant Staphylococcus aureus ST10342 assessed as reduction in norfloxacin MIC by checkerboard assay relative to control; format: functional
Staphylococcus aureus [10] = test: Potentiation of norfloxacin-induced antibacterial activity against clinical isolates of methicillin-resistant Staphylococcus aureus P4423 assessed as reduction in norfloxacin MIC by checkerboard assay relative to control; format: functional
Staphylococcus aureus [11] = test: Ratio of MIC for clinical isolates of methicillin-resistant Staphylococcus aureus P4629 to MIC for clinical isolates of methicillin-resistant Staphylococcus aureus P4629 in presence of norfloxacin; format: functional
Staphylococcus aureus [12] = test: Antibacterial activity against Staphylococcus aureus MTCC 96 by broth microdilution assay; format: functional
Staphylococcus aureus [13] = test: Antibacterial activity against clinical isolates of methicillin-resistant Staphylococcus aureus ST10760 by broth microdilution assay; format: functional
Staphylococcus aureus [14] = test: Antibacterial activity against clinical isolates of methicillin-resistant Staphylococcus aureus ST10760 by checkerboard assay in presence of norfloxacin; format: functional
Staphylococcus aureus [15] = test: Potentiation of norfloxacin-induced antibacterial activity against clinical isolates of methicillin-resistant Staphylococcus aureus P4650 assessed as norfloxacin MIC by checkerboard assay; format: functional
Staphylococcus aureus [16] = test: Potentiation of norfloxacin-induced antibacterial activity against clinical isolates of methicillin-resistant Staphylococcus aureus P4629 assessed as reduction in norfloxacin MIC by checkerboard assay relative to control; format: functional
Staphylococcus aureus [17] = test: Potentiation of norfloxacin-induced antibacterial activity against clinical isolates of methicillin-resistant Staphylococcus aureus ST10342 assessed as norfloxacin MIC by checkerboard assay; format: functional
Staphylococcus aureus [18] = test: Potentiation of norfloxacin-induced antibacterial activity against clinical isolates of methicillin-resistant Staphylococcus aureus P4629 assessed as norfloxacin MIC by checkerboard assay; format: functional
Staphylococcus aureus [19] = test: Antibacterial activity against clinical isolates of methicillin-resistant Staphylococcus aureus ST2071 by checkerboard assay in presence of norfloxacin; format: functional
Staphylococcus aureus [20] = test: Antibacterial activity against clinical isolates of methicillin-resistant Staphylococcus aureus ST10342 by broth microdilution assay; format: functional
Staphylococcus aureus [21] = test: Potentiation of norfloxacin-induced antibacterial activity against clinical isolates of methicillin-resistant Staphylococcus aureus ST10760 assessed as norfloxacin MIC by checkerboard assay; format: functional
Staphylococcus aureus [22] = test: Antibacterial activity against clinical isolates of methicillin-resistant Staphylococcus aureus P4423 by broth microdilution assay; format: functional
Staphylococcus aureus [23] = test: Bactericidal activity against clinical isolates of methicillin-resistant Staphylococcus aureus ST2071 assessed as reduction in viability at 0.5 MIC after 24 hrs by time kill kinetic analysis in presence of norfloxacin relative to control; format: functional
Staphylococcus aureus [24] = test: Potentiation of norfloxacin-induced antibacterial activity against clinical isolates of methicillin-resistant Staphylococcus aureus ST2071 assessed as norfloxacin MIC by checkerboard assay; format: functional
Staphylococcus aureus [25] = test: Ratio of MIC for clinical isolates of methicillin-resistant Staphylococcus aureus ST10342 to MIC for clinical isolates of methicillin-resistant Staphylococcus aureus ST10342 in presence of norfloxacin; format: functional
Staphylococcus aureus [26] = test: Bactericidal activity against clinical isolates of methicillin-resistant Staphylococcus aureus ST2071 assessed as reduction in viability at 0.5 MIC after 24 hrs by time kill kinetic analysis relative to control; format: functional
Staphylococcus aureus [27] = test: Antibacterial activity against clinical isolates of methicillin-resistant Staphylococcus aureus P4650 by broth microdilution assay; format: functional
Staphylococcus aureus [28] = test: Antibacterial activity against clinical isolates of methicillin-resistant Staphylococcus aureus ST10342 by checkerboard assay in presence of norfloxacin; format: functional
Staphylococcus aureus [29] = test: Ratio of MIC for clinical isolates of methicillin-resistant Staphylococcus aureus ST2071 to MIC for clinical isolates of methicillin-resistant Staphylococcus aureus ST2071 in presence of norfloxacin; format: functional
Staphylococcus aureus [30] = test: Ratio of MIC for clinical isolates of methicillin-resistant Staphylococcus aureus P4650 to MIC for clinical isolates of methicillin-resistant Staphylococcus aureus P4650 in presence of norfloxacin; format: functional
Staphylococcus aureus [31] = test: Antibacterial activity against clinical isolates of methicillin-resistant Staphylococcus aureus ST2071 by broth microdilution assay; format: functional
Staphylococcus aureus [32] = test: Potentiation of norfloxacin-induced antibacterial activity against clinical isolates of methicillin-resistant Staphylococcus aureus P4423 assessed as norfloxacin MIC by checkerboard assay; format: functional
Staphylococcus aureus [33] = test: Antibacterial activity against Staphylococcus aureus MTCC 96 infected in ip dosed Swiss mouse assessed as reduction in bacterial load in liver administered qd for 7 days post infection measured 24 hrs after last dose by plate counting analysis; format: functional, organism-based
Staphylococcus aureus [34] = test: Antibacterial activity against Staphylococcus aureus MTCC 96 infected in ip dosed Swiss mouse assessed as reduction in bacterial load in lung administered qd for 7 days post infection measured 24 hrs after last dose by plate counting analysis; format: functional, organism-based
Staphylococcus aureus [35] = test: Ratio of MIC for clinical isolates of methicillin-resistant Staphylococcus aureus ST10760 to MIC for clinical isolates of methicillin-resistant Staphylococcus aureus ST10760 in presence of norfloxacin; format: functional
Staphylococcus aureus [36] = test: Ratio of MIC for clinical isolates of methicillin-resistant Staphylococcus aureus P4423 to MIC for clinical isolates of methicillin-resistant Staphylococcus aureus P4423 in presence of norfloxacin; format: functional
Staphylococcus aureus [37] = test: Antibacterial activity against Staphylococcus aureus MTCC 96 infected in ip dosed Swiss mouse assessed as reduction in bacterial load in blood administered qd for 7 days post infection measured 24 hrs after last dose by plate counting analysis; format: functional, organism-based
Mus musculus [38] = test: Toxicity in Swiss mouse infected with Staphylococcus aureus MTCC 96 assessed as mortality at 12.5 to 100 mg/kg, ip qd for 7 days post infection; format: organism-based; conditions: in vivo, 168 h
Staphylococcus aureus [39] = test: Antibacterial activity against Staphylococcus aureus MTCC 96 infected in ip dosed Swiss mouse assessed as reduction in bacterial load in spleen administered qd for 7 days post infection measured 24 hrs after last dose by plate counting analysis; format: functional, organism-based
Mus musculus [40] = test: Toxicity in Swiss mouse infected with Staphylococcus aureus MTCC 96 assessed as morbidity at 12.5 to 100 mg/kg, ip qd for 7 days post infection; format: organism-based; conditions: in vivo, 168 h
Staphylococcus aureus [41] = test: Antibacterial activity against Staphylococcus aureus MTCC 96 infected in ip dosed Swiss mouse assessed as reduction in bacterial load in kidney administered qd for 7 days post infection measured 24 hrs after last dose by plate counting analysis; format: functional, organism-based

COc1ccc([C@@H]2COc3c(cc(/C=C/C(=O)c4ccc(OC)c(OC)c4)c4c3C=CC(C)(C)O4)C2)c(OC)c1
fold change (FC) (Staphylococcus aureus [1]): 2
fractional inhibitory concentration index (FICI) (Staphylococcus aureus [2]): 0.5
fold change (FC) (Staphylococcus aureus [3]): 4
fold change (FC) (Staphylococcus aureus [4]): 4
MIC (Staphylococcus aureus [5]): 50 µg/mL (≈ 92.1 µM)
fractional inhibitory concentration index (FICI) (Staphylococcus aureus [6]): 0.375
fractional inhibitory concentration index (FICI) (Staphylococcus aureus [7]): 0.75
fold change (FC) (Staphylococcus aureus [8]): 4
fold change (FC) (Staphylococcus aureus [9]): 8
fold change (FC) (Staphylococcus aureus [10]): 4
Ratio (Staphylococcus aureus [11]): <=4
MIC (Staphylococcus aureus [12]): 25 µg/mL (≈ 46.1 µM)
MIC (Staphylococcus aureus [13]): 50 µg/mL (≈ 92.1 µM)
fractional inhibitory concentration index (FICI) (Staphylococcus aureus [14]): 0.75
MIC (Staphylococcus aureus [15]): 62.5 µg/mL
fold change (FC) (Staphylococcus aureus [16]): 8
MIC (Staphylococcus aureus [17]): 31.2 µg/mL
MIC (Staphylococcus aureus [18]): 62.5 µg/mL
fractional inhibitory concentration index (FICI) (Staphylococcus aureus [19]): 0.5
MIC (Staphylococcus aureus [20]): 50 µg/mL (≈ 92.1 µM)
MIC (Staphylococcus aureus [21]): 125 µg/mL
MIC (Staphylococcus aureus [22]): 50 µg/mL (≈ 92.1 µM)
fold change (FC) (Staphylococcus aureus [23]): <=4
MIC (Staphylococcus aureus [24]): 125 µg/mL
Ratio (Staphylococcus aureus [25]): <=4
fold change (FC) (Staphylococcus aureus [26]): <=1.52
MIC (Staphylococcus aureus [27]): 50 µg/mL (≈ 92.1 µM)
fractional inhibitory concentration index (FICI) (Staphylococcus aureus [28]): 0.375
Ratio (Staphylococcus aureus [29]): <=4
Ratio (Staphylococcus aureus [30]): <=4
MIC (Staphylococcus aureus [31]): 50 µg/mL (≈ 92.1 µM)
MIC (Staphylococcus aureus [32]): 62.5 µg/mL

COc1cc(OC)c([C@@H]2COc3c(cc(/C=C/C(=O)c4ccco4)c4c3C=CC(C)(C)O4)C2)cc1/C=C/C(=O)c1ccco1
fold change (FC) (Staphylococcus aureus [1]): 2
fractional inhibitory concentration index (FICI) (Staphylococcus aureus [2]): 0.375
fold change (FC) (Staphylococcus aureus [3]): 16
fold change (FC) (Staphylococcus aureus [4]): 8
MIC (Staphylococcus aureus [5]): 25 µg/mL (≈ 42.2 µM)
fractional inhibitory concentration index (FICI) (Staphylococcus aureus [6]): 0.312
Activity (Staphylococcus aureus [33]): Dose-dependent effect
fractional inhibitory concentration index (FICI) (Staphylococcus aureus [7]): 0.375
fold change (FC) (Staphylococcus aureus [8]): 8
fold change (FC) (Staphylococcus aureus [9]): 8
fold change (FC) (Staphylococcus aureus [10]): 8
Ratio (Staphylococcus aureus [11]): <=4
MIC (Staphylococcus aureus [12]): 25 µg/mL (≈ 42.2 µM)
MIC (Staphylococcus aureus [13]): 50 µg/mL (≈ 84.4 µM)
fractional inhibitory concentration index (FICI) (Staphylococcus aureus [14]): 0.375
MIC (Staphylococcus aureus [15]): 31.2 µg/mL
Activity (Staphylococcus aureus [34]): Dose-dependent effect
Ratio (Staphylococcus aureus [35]): <=4
fold change (FC) (Staphylococcus aureus [16]): 16
MIC (Staphylococcus aureus [17]): 31.2 µg/mL
MIC (Staphylococcus aureus [18]): 31.2 µg/mL
Ratio (Staphylococcus aureus [36]): <=4
fractional inhibitory concentration index (FICI) (Staphylococcus aureus [19]): 0.312
MIC (Staphylococcus aureus [20]): 50 µg/mL (≈ 84.4 µM)
MIC (Staphylococcus aureus [21]): 62.5 µg/mL
Activity (Staphylococcus aureus [37]): Dose-dependent effect
MIC (Staphylococcus aureus [22]): 50 µg/mL (≈ 84.4 µM)
fold change (FC) (Staphylococcus aureus [23]): <16
MIC (Staphylococcus aureus [24]): 31.2 µg/mL
Activity (Mus musculus [38]): Non-toxic
Ratio (Staphylococcus aureus [25]): <=4
fold change (FC) (Staphylococcus aureus [26]): <=1.52
Activity (Staphylococcus aureus [39]): Dose-dependent effect
MIC (Staphylococcus aureus [27]): 25 µg/mL (≈ 42.2 µM)
Activity (Mus musculus [40]): Non-toxic
fractional inhibitory concentration index (FICI) (Staphylococcus aureus [28]): 0.375
Ratio (Staphylococcus aureus [29]): <=4
Ratio (Staphylococcus aureus [30]): <=4
MIC (Staphylococcus aureus [31]): 50 µg/mL (≈ 84.4 µM)
Activity (Staphylococcus aureus [41]): Dose-dependent effect
MIC (Staphylococcus aureus [32]): 31.2 µg/mL

CC1(C)C=Cc2c(ccc3c2OC[C@@H](c2ccc(O)cc2O)C3)O1 [GLABRIDIN]
fold change (FC) (Staphylococcus aureus [1]): 2
fractional inhibitory concentration index (FICI) (Staphylococcus aureus [2]): 0.5
fold change (FC) (Staphylococcus aureus [3]): 2
fold change (FC) (Staphylococcus aureus [4]): 4
MIC (Staphylococcus aureus [5]): 12.5 µg/mL (≈ 38.5 µM)
fractional inhibitory concentration index (FICI) (Staphylococcus aureus [6]): 0.5
fractional inhibitory concentration index (FICI) (Staphylococcus aureus [7]): 1
fold change (FC) (Staphylococcus aureus [8]): 4
fold change (FC) (Staphylococcus aureus [9]): 2
fold change (FC) (Staphylococcus aureus [10]): 2
Ratio (Staphylococcus aureus [11]): 4
MIC (Staphylococcus aureus [12]): 3.12 µg/mL (≈ 9.63 µM)
MIC (Staphylococcus aureus [13]): 12.5 µg/mL (≈ 38.5 µM)
fractional inhibitory concentration index (FICI) (Staphylococcus aureus [14]): 0.75
MIC (Staphylococcus aureus [15]): 62.5 µg/mL
fold change (FC) (Staphylococcus aureus [16]): 4
MIC (Staphylococcus aureus [17]): 125 µg/mL
MIC (Staphylococcus aureus [18]): 125 µg/mL
fractional inhibitory concentration index (FICI) (Staphylococcus aureus [19]): 0.75
MIC (Staphylococcus aureus [20]): 12.5 µg/mL (≈ 38.5 µM)
MIC (Staphylococcus aureus [21]): 125 µg/mL
MIC (Staphylococcus aureus [22]): 12.5 µg/mL (≈ 38.5 µM)
MIC (Staphylococcus aureus [24]): 250 µg/mL
fold change (FC) (Staphylococcus aureus [26]): <=1.52
MIC (Staphylococcus aureus [27]): 12.5 µg/mL (≈ 38.5 µM)
fractional inhibitory concentration index (FICI) (Staphylococcus aureus [28]): 1
Ratio (Staphylococcus aureus [30]): 4
MIC (Staphylococcus aureus [31]): 12.5 µg/mL (≈ 38.5 µM)
MIC (Staphylococcus aureus [32]): 125 µg/mL
